Consider five compounds from patent publication US20100009936A1, “CHEMICAL COMPOUNDS” (PRAECIS PHARMACEUTICALS INCORPORATED, priority 2006, published 2010).

The term IC50 denotes the concentration that inhibits the measured activity by half.

Test [1] addresses T1, S1P-1 receptor (Homo sapiens, UniProt P21453). The experiment in a line: GTPgS assay, S1P1. Type of test: biochemical. Further details: expressed in transfected cells; membranes. The conditions noted are these: [35S]-GTPgS, membranes of rat hepatoma cells expressing human S1P1; tested as trifluoracetic acid salt; read-out: pEC50 in the S1P1 assay (converted). As to the method:
(§1) For membrane preparations all steps were performed at 4° C. Rat hepatoma cells stably expressing the human S1P1 receptor or Rat Basophilic Leukaemia cells (RBL) stably expressing human S1P3 receptor were grown to 80% confluency before being harvested into 10 ml Phospho-Buffered Saline (PBS) and centrifuged at 1200 rpm for 5 minutes. After removal of the supernatant, the pellet was re-suspended and cells were homogenised within a glass Waring blender for 2 bursts of 15 secs in 200 mls of buffer (50 mM HEPES, […], 25 ug/ml bacitracin, 1 mM EDTA, 1 mM PMSF, 2 uM pepstatin A). The blender was plunged into ice for 5 mins after the first burst and 10-40 mins after the final burst to allow foam to dissipate. The material was then spun at 500 g for 20 mins and the supernatant spun for 36 mins at 48,000 g. The pellet was resuspended in the same buffer as above but without PMSF and pepstatin A. The material was then forced through a 0.6 mm needle, made up to the required volume, (usually ×4 the volume of the original cell pellet), aliquoted and stored frozen at −80° C. […]
(§2) After 30 minutes pre-coupling at 4° C. the bead and membrane suspension was dispensed into a white Greiner polypropylene LV384-well plate (5 ul/well), containing 0.1 ul of test compound or S1P. […] The final assay cocktail (10.1 ul) was centrifuged at 1000 rpm for 5 minutes then read immediately on a Viewlux. […]
Background: GTPγS resists hydrolysis and so accumulates on activated G proteins.

In test [2] the target is T2, human S1P3 receptor (Homo sapiens, UniProt Q99500).
T2 construct: expressed in transfected cells; membranes
The test can be described thus: GTPgS assay, S1P3. Format: biochemical. To be noted: [35S]-GTPgS, membranes of RBL cells expressing human S1P3; tested as trifluoracetic acid salt; read-out: pEC50 in the S1P3 assay (converted). Here is the method:
as §1, §2

Test [3] relates to C57Bl/6 mice. The test can be described thus: Lymphopenia assay in mice. To be noted: 10 mg/Kg oral dose, male C57Bl/6 mice, blood taken after 6 hours. Type of test: in vivo. As to the method:
Several of the compounds described herein were evaluated for the ability to induce lymphopenia in mice. Male C57Bl/6 mice were divided into groups of three. A control group received the 3% BSA vehicle only. The other groups received a single dose of either a specified dose of test compound in vehicle administered orally (PO) and intravenously (IV). After 6 hours, the mice were anesthetized with isoflurane and approximately 250 μL of blood was removed from the retroorbital sinus and collected in an EDTA microtainer, mixed with an anticoagulant and placed on a tilt table until complete blood count (CBC) analysis.

For test [4], the target named is T1, S1P-1 receptor. The test can be described thus: [33P]sphingosine 1-phosphate binding assay, S1P-1 receptor. More on the design: expressed in transfected cells; host or cells: HEK 293 T cells (transient, FuGENE 6), crude membranes. As to the method: In certain embodiments, the compounds of the invention selective for the S1P-1 receptor as compared to one or more of the other S1P receptors. For example, one set of compounds includes compounds which are selective for the S1P-1 receptor relative to the S1P-3 receptor. […] The EC50 of a compound is determined using the ^35S-GTPγS binding assay, as described in WO 03/061567, the entire contents of which are incorporated herein by reference. […] The IC50 of a compound is determined using the [^33P]sphingosine 1-phosphate binding assay, as described in Davis, M. D. et al., Sphingosine 1-Phosphate Analogs as Receptor Antagonists. J. Biol. Chem. (2005) 280:9833-9841, the entire contents of which are incorporated herein by this reference.
The terms “agonist” or “S1P-1 receptor agonist” as used herein include the compounds described herein which bind to and/or agonize the S1P-1 receptor. […] The compounds' IC50 for the S1P-1 receptor can be measured using the binding assays described in Example 13 or those described in WO 03/061567.
The ability of several of the compounds described herein to bind to the S1P-1 or S1P-3 receptor was also tested as follows.
For the membrane preparation, plasmid DNA was transfected into HEK 293 T cells using the FuGENE 6 transfection protocol (publicly available from Roche). […] Protein concentration was determined spectroscopically by Bradford protein assay. […]

Structures are written as SMILES.

T1 sequence (P21453 whole entry): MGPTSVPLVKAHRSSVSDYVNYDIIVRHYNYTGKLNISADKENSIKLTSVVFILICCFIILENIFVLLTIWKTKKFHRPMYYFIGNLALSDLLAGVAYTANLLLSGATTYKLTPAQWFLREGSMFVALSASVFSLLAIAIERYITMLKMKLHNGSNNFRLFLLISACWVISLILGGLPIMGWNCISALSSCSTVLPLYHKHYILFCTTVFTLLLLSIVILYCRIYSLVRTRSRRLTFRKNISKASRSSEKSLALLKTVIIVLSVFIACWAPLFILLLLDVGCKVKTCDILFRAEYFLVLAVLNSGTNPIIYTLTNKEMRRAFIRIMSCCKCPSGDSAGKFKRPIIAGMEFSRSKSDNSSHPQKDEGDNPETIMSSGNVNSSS
T2 sequence (Q99500 whole entry): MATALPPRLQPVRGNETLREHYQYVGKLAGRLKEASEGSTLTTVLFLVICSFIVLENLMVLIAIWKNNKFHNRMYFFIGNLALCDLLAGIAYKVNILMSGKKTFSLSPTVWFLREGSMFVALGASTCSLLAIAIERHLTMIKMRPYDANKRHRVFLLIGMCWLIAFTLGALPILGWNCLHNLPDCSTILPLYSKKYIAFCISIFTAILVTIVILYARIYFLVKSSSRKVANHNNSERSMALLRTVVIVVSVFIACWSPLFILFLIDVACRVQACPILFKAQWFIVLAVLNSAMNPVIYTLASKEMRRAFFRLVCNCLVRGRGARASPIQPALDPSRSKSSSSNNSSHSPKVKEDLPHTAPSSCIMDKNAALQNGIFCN

Take `CCCCCCCCOc1ccc(-c2nnc([C@@](C)(N)COP(=O)(O)O)s2)cc1C(F)(F)F` [(S)-2-Amino-2-(5-(4-(octyloxy)-3-(trifluoromethyl)phenyl)-1,3,4-thiadiazol-2-yl)propyl dihydrogen phosphate]: the EC50 in test [1] was 0.631 nM; in test [2] it was 794 nM. Compound `CCCCCCCCOc1ccc(-c2nnc([C@@](C)(N)CO)s2)cc1C(F)(F)F` [(S)-2-amino-2-(5-(4-(octyloxy)-3-(trifluoromethyl)phenyl)-1,3,4-thiadiazol-2-yl)propan-1-ol] returned a lymphopenia in test [3] of 77%.

Regarding `CCCCCCCCOc1ccc(-c2cnc([C@@](C)(N)COP(=O)(O)O)s2)cc1C(F)(F)F` [(S)-2-amino-2-(5-(4-(octyloxy)-3-(trifluoromethyl)phenyl)thiazol-2-yl)propyl dihydrogen phosphate], the values for the EC50 in test [1] and in test [2] were 3.16 nM and 316 nM, respectively. In turn, `CCCCCCCCOc1ccc(-c2cnc([C@@](C)(N)CO)s2)cc1C(F)(F)F` [(S)-2-amino-2-(5-(4-(octyloxy)-3-(trifluoromethyl)phenyl)thiazol-2-yl)propan-1-ol] had a lymphopenia in test [3] of 75%.

In test [4], `C[C@](N)(COP(=O)(O)O)c1nnc(-c2ccc(OCCCCc3ccccc3)c(C(F)(F)F)c2)s1` gave a half-inhibitory concentration (IC50) of 3.23 nM. That is a single-digit nanomolar value.
